Assay [1] addresses Multidrug resistance protein 1a (Rattus norvegicus) (UniProt Q6PSM0). As to the kind of experiment: TP_TRANSPORTER: Northern blot from primary hepatocytes. The note with it: Hepatocyte. The class given is functional, cell-based.
Assay [2] shares this target. As to the kind of experiment: TP_TRANSPORTER: Western blot, primary hepatocytes. The note with it: Hepatocyte. Type of assay: functional, cell-based.

Sequence of Multidrug resistance protein 1a (Rattus norvegicus) (Q6PSM0 as listed by the source): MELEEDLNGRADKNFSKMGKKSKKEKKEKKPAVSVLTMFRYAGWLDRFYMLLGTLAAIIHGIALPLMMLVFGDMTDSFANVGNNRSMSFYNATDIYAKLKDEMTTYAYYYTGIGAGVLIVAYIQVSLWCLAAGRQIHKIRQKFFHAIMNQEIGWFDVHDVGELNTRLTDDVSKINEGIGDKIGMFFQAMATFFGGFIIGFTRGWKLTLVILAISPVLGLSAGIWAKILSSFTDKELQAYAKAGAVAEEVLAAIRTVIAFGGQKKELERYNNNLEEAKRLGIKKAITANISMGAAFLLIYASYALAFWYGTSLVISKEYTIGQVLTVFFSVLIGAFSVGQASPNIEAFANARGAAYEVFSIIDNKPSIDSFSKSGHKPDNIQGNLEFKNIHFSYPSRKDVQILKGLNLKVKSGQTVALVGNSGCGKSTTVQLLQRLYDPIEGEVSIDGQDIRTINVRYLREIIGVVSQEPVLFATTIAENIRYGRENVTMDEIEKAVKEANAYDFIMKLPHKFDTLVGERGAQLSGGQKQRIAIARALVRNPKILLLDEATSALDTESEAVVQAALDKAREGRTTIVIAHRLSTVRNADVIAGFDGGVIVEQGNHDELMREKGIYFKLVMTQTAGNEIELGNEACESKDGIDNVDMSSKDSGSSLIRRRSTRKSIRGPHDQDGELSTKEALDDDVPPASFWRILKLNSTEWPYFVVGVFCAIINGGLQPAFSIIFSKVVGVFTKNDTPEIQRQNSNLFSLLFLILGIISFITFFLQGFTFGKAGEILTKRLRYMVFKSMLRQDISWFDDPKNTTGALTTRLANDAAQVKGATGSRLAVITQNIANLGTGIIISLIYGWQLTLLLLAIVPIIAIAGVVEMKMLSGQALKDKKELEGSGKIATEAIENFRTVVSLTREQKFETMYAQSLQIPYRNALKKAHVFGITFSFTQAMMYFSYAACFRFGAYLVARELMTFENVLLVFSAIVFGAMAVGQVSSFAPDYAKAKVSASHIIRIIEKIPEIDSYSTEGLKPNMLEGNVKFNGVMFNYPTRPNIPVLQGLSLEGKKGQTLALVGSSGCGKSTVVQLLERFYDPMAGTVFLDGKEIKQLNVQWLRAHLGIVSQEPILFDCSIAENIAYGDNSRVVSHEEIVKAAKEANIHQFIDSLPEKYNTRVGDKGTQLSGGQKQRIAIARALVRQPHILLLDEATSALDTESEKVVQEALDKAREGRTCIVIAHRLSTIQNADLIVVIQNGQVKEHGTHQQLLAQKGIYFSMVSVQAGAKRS

Consider `C[C@@H]1C[C@H]2[C@@H]3CCC4=CC(=O)C=C[C@]4(C)[C@@]3(F)[C@@H](O)C[C@]2(C)[C@@]1(O)C(=O)CO`, for which the Activity result in assay [1] and in assay [2] was “inducer [Decrease]” each time.

For the origin of these results see ChEMBL document CHEMBL2074058, “Regulation by dexamethasone of P-glycoprotein expression in cultured rat hepatocytes” (FEBS Lett, 1993).
